In PubChem BioAssay (NCI):
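GI50: concentration for 50% inhibition of growth. TGI: concentration producing complete growth inhibition.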

Experiments:
Test in all cases: NCI anticancer screen, dose series, 384-well format
[1] = system: 786-0 renal
[2] = system: A498 renal
[3] = system: A549 NSCLC
[4] = system: ACHN renal
[5] = system: BT-549 breast
[6] = system: CAKI-1 renal
[7] = system: CCRF-CEM leukemia
[8] = system: COLO 205 colon
[9] = system: DU-145 prostate
[10] = system: EKVX NSCLC
[11] = system: HCC-2998 colon
[12] = system: HCT-15 colon
[13] = system: HL-60(TB) leukemia
[14] = system: HOP-62 NSCLC
[15] = system: HOP-92 NSCLC
[16] = system: HS 578T breast
[17] = system: HT29 colon
[18] = system: IGROV1 ovarian
[19] = system: K-562 leukemia
[20] = system: KM12 colon
[21] = system: LOX IMVI melanoma
[22] = system: M14 melanoma
[23] = system: MALME-3M melanoma
[24] = system: MCF7 breast
[25] = system: MDA-MB-231 breast
[26] = system: MDA-MB-435 melanoma
[27] = system: MDA-MB-468 breast
[28] = system: MOLT-4 leukemia
[29] = system: NCI-H226 lung
[30] = system: NCI-H23 lung
[31] = system: NCI-H322M lung
[32] = system: NCI-H460 NSCLC
[33] = system: NCI-H522 lung
[34] = system: NCI/ADR-RES ovarian
[35] = system: OVCAR-3 ovarian
[36] = system: OVCAR-4 ovarian
[37] = system: OVCAR-5 ovarian
[38] = system: OVCAR-8 ovarian
[39] = system: PC-3 prostate
[40] = system: RPMI-8226 leukemia
[41] = system: RXF 393 renal
[42] = system: SF-268 CNS
[43] = system: SF-295 CNS
[44] = system: SF-539 CNS
[45] = system: SK-MEL-28 melanoma
[46] = system: SK-MEL-5 melanoma
[47] = system: SK-OV-3 ovarian
[48] = system: SN12C renal
[49] = system: SNB-19 CNS
[50] = system: SNB-75 CNS
[51] = system: SR leukemia
[52] = system: SW-620 colon
[53] = system: T-47D breast
[54] = system: TK-10 renal
[55] = system: UACC-257 melanoma
[56] = system: UACC-62 melanoma
[57] = system: UO-31 renal

`Cn1c(=O)c2c(ncn2CC(=O)Nc2ccc(-c3ccccc3)nn2)n(C)c1=O` was tested, and the GI50 [1] was greater than 100 µM, the TGI [1] was greater than 100 µM and the GI50 [2] was greater than 100 µM. The TGI [2] was greater than 100 µM, the GI50 [3] was greater than 100 µM and the TGI [3] was greater than 100 µM. For the same compound, the GI50 [4] was greater than 100 µM, the TGI [4] was greater than 100 µM and the GI50 [5] was greater than 100 µM. For the same compound, the TGI [5] was greater than 100 µM, the GI50 [6] was greater than 100 µM and the TGI [6] was greater than 100 µM. It also gave a GI50 [7] of 60.2 µM, a TGI [7] greater than 100 µM and a GI50 [8] greater than 100 µM. It also gave a TGI [8] greater than 100 µM, a GI50 [9] greater than 100 µM and a TGI [9] greater than 100 µM. The GI50 [10] was greater than 100 µM, the TGI [10] was greater than 100 µM and the GI50 [11] was greater than 100 µM. It also gave a TGI [11] greater than 100 µM, a GI50 [12] greater than 100 µM and a TGI [12] greater than 100 µM. The GI50 [13] was 6.01 µM, the TGI [13] was greater than 100 µM and the GI50 [14] was greater than 100 µM. It also gave a TGI [14] greater than 100 µM, a GI50 [15] greater than 100 µM and a TGI [15] greater than 100 µM. The GI50 [16] was 72.9 µM, the TGI [16] was greater than 100 µM and the GI50 [17] was greater than 100 µM. The TGI [17] was greater than 100 µM, the GI50 [18] was greater than 100 µM and the TGI [18] was greater than 100 µM. For the same compound, the GI50 [19] was greater than 100 µM, the TGI [19] was greater than 100 µM and the GI50 [20] was greater than 100 µM. For the same compound, the TGI [20] was greater than 100 µM, the GI50 [21] was greater than 100 µM and the TGI [21] was greater than 100 µM. The GI50 [22] was greater than 100 µM, the TGI [22] was greater than 100 µM and the GI50 [23] was greater than 100 µM. For the same compound, the TGI [23] was greater than 100 µM, the GI50 [24] was greater than 100 µM and the TGI [24] was greater than 100 µM. It also gave a GI50 [25] of 70.8 µM, a TGI [25] greater than 100 µM and a GI50 [26] greater than 100 µM. The TGI [26] was greater than 100 µM, the GI50 [27] was 15.9 µM and the TGI [27] was 96.4 µM. The GI50 [28] was greater than 100 µM, the TGI [28] was greater than 100 µM and the GI50 [29] was greater than 100 µM. The TGI [29] was greater than 100 µM, the GI50 [30] was greater than 100 µM and the TGI [30] was greater than 100 µM. For the same compound, the GI50 [31] was greater than 100 µM, the TGI [31] was greater than 100 µM and the GI50 [32] was greater than 100 µM. The TGI [32] was greater than 100 µM, the GI50 [33] was greater than 100 µM and the TGI [33] was greater than 100 µM. The GI50 [34] was greater than 100 µM, the TGI [34] was greater than 100 µM and the GI50 [35] was greater than 100 µM. For the same compound, the TGI [35] was greater than 100 µM, the GI50 [36] was 25.8 µM and the TGI [36] was greater than 100 µM. For the same compound, the GI50 [37] was greater than 100 µM, the TGI [37] was greater than 100 µM and the GI50 [38] was greater than 100 µM. For the same compound, the TGI [38] was greater than 100 µM, the GI50 [39] was greater than 100 µM and the TGI [39] was greater than 100 µM. It also gave a GI50 [40] greater than 100 µM, a TGI [40] greater than 100 µM and a GI50 [41] of 27.1 µM. For the same compound, the TGI [41] was greater than 100 µM, the GI50 [42] was greater than 100 µM and the TGI [42] was greater than 100 µM. The GI50 [43] was greater than 100 µM, the TGI [43] was greater than 100 µM and the GI50 [44] was greater than 100 µM. The TGI [44] was greater than 100 µM, the GI50 [45] was greater than 100 µM and the TGI [45] was greater than 100 µM. It also gave a GI50 [46] of 3.44 µM, a TGI [46] greater than 100 µM and a GI50 [47] greater than 100 µM. It also gave a TGI [47] greater than 100 µM, a GI50 [48] greater than 100 µM and a TGI [48] greater than 100 µM. For the same compound, the GI50 [49] was greater than 100 µM, the TGI [49] was greater than 100 µM and the GI50 [50] was greater than 100 µM. The TGI [50] was greater than 100 µM, the GI50 [51] was 21.6 µM and the TGI [51] was greater than 100 µM. It also gave a GI50 [52] greater than 100 µM, a TGI [52] greater than 100 µM and a GI50 [53] of 36.3 µM. For the same compound, the TGI [53] was greater than 100 µM, the GI50 [54] was greater than 100 µM and the TGI [54] was greater than 100 µM. For the same compound, the GI50 [55] was 49.8 µM, the TGI [55] was greater than 100 µM and the GI50 [56] was 74.6 µM. The TGI [56] was greater than 100 µM, the GI50 [57] was greater than 100 µM and the TGI [57] was greater than 100 µM.
